≈ marks a conversion by molar mass, not a printed value.
Legend:
E. coli LpxA = E. coli LpxA (Escherichia coli, UniProt P0A722); test: LpxA enzyme inhibition (TLC of radiolabeled UDP-GlcNAc acylation); type: biochemical; details: percentage of control, lower is better; for remaining activity at 500 µM (stock) / % LpxA activity (500 μM): test compound dilution 500 μM; for remaining activity at 5000 µM (stock) / % LpxA activity (5 mM): test compound dilution 5 mM
Description: Measurement of LpxA activity was based on increased mobility of radiolabeled UDP-N-acetyl-D-glucosamine on thin layer chromatography (TLC) plates upon acylation. One μl of test compound of appropriate dilution in ethanol was mixed with 2.5 μM β-hydroxy-myristoyl-ACP and 0.5 μM E. coli LpxA in 1% bovine serum albumin and 40 mM Na-Hepes (pH 8.0) at room temperature (total volume 8 μl). The reaction was initiated by adding 2 μl of UDP-[^3H]N-acetyl-D-glucosamine and aliquots were removed at various time intervals and spotted directly on silica gel G plates.
The procedure as given above was followed, with the appropriate dilutions of test compound being 5 mM and 500 μM.

[1] = test system: E. coli K12 wild type strain; test: Pro-antibiotic MIC of antibiotic agents alone and with DNM0195; type: cell-based; details: antibiotic agent alone
Description: Susceptibilities to the compounds were determined using the National Committee for Clinical Laboratory Standards (NCCLS) M7-A6 broth microdilution method. Cation-adjusted Mueller-Hinton broth (Ca^2+, 25 μg/mL; Mg^2+, 12.5 μg/mL) microdilution panels were prepared to contain antimicrobial doubling dilution concentrations of an appropriate range. […] Each final panel well volume was 100 μL with a bacterial inoculum of 5×10^5 CFU (colony forming units)/mL. Panels were read following 16 to 20 h of incubation at 35 degrees Celsius in ambient air. The MIC (minimum inhibitory concentration) was defined as the lowest concentration of antimicrobial inhibiting visible growth.
Following Example 24, MICs of various antibiotic agents were determined against the E. coli K12 wild type strain, using the same procedure with the appropriate range for each antibiotic. For erythromycin, gentamicin, and kanamycin, this range was 0.24 μg/mL-500 μg/mL. Parallel to this effort, solutions were prepared which were identical. To each of these were added 0.5 μL of DNM0195 stock solution and mixed to produce a final concentration of 500 μM for determination of pro-antibiotic activity.

[2] = test system: E. coli D22 mutant strain; test: Antibiotic MIC, NCCLS M7-A6 broth microdilution; type: cell-based; details: range tested 1 μM-2 mM
Description: (§1) Susceptibilities to the compounds were determined using the National Committee for Clinical Laboratory Standards (NCCLS) M7-A6 broth microdilution method. Cation-adjusted Mueller-Hinton broth (Ca^2+, 25 μg/mL; Mg^2+, 12.5 μg/mL) microdilution panels were prepared to contain antimicrobial doubling dilution concentrations of an appropriate range. DMSO (dimethylsulfoxide) controls were incorporated into the panel to mimic the quantity of DMSO used in dissolving some of the compounds at the higher concentrations. Each final panel well volume was 100 μL with a bacterial inoculum of 5×10^5 CFU (colony forming units)/mL. Panels were read following 16 to 20 h of incubation at 35 degrees Celsius in ambient air. The MIC (minimum inhibitory concentration) was defined as the lowest concentration of antimicrobial inhibiting visible growth.
(§2) Procedure followed was as described above, with the appropriate range being 1 μM-2 mM and using the E. coli D22 mutant strain and the E. coli K12 wild type strain. Value recorded was the lowest concentration of compound needed to produce the bactericidal or bacteriostatic effect (lower is better): […]

[3] = test system: E. coli K12 wild type strain; test: Antibiotic MIC, NCCLS M7-A6 broth microdilution; type: cell-based; details: range tested 1 μM-2 mM
Description: as §1, §2

mice = details: mouse, in vivo
[4] = Escherichia coli, read-out: MIC

E. coli LpxA, sequence (P0A722 whole entry): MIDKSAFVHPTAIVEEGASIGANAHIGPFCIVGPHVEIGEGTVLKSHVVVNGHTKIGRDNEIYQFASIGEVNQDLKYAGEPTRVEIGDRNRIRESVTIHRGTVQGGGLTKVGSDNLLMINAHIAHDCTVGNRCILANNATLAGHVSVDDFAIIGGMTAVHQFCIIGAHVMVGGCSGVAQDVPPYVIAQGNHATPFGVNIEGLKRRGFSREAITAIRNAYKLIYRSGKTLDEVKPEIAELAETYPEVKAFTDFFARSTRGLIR

In the case of `O=C(O)/C=C/c1cc(-c2nnn(CCC(=O)O)n2)c(Cc2ccccc2)s1` [DNM0252, (E)-3-(5-benzyl-4-(2-(2-carboxyethyl)-2H-tetrazol-5-yl)thiophen-2-yl)acrylic acid], the remaining activity at 500 µM (stock) (E. coli LpxA) is reported as 62.9% and the remaining activity at 5000 µM (stock) (E. coli LpxA) is reported as 5.1%.

`CC[C@H]1OC(=O)[C@H](C)[C@@H](O[C@H]2C[C@@](C)(OC)[C@@H](O)[C@H](C)O2)[C@H](C)[C@@H](O[C@@H]2O[C@H](C)C[C@H](N(C)C)[C@H]2O)[C@](C)(O)C[C@@H](C)C(=O)[C@H](C)[C@@H](O)[C@]1(C)O` [Erythromycin] showed an MIC [1, 4] of 62.5 µg/mL.

For `COC(=O)/C=C/c1cc(-c2nnn[nH]2)c(-c2cccc3ccccc23)s1` [DNM0234, (E)-methyl 3-(5-(naphthalen-1-yl)-4-(1H-tetrazol-5-yl)thiophen-2-yl)acrylate], the remaining activity at 500 µM (stock) (E. coli LpxA) was 92.1% and the remaining activity at 5000 µM (stock) (E. coli LpxA) was 1.1%.

In the case of `Cn1nnnc1-c1cc(/C=C/C(=O)O)sc1Cc1ccccc1` [DNM0196, (E)-3-(5-benzyl-4-(1-methyl-1H-tetrazol-5-yl)thiophen-2-yl)acrylic acid], the remaining activity at 500 µM (stock) (E. coli LpxA) is reported as 43.9% and the remaining activity at 5000 µM (stock) (E. coli LpxA) is reported as 5.8%.

With `COC(=O)/C=C/c1sc(-c2ccc(F)cc2)cc1-c1nnn[nH]1` [DNM0229, (E)-methyl 3-(5-(4-fluorophenyl)-3-(1H-tetrazol-5-yl)thiophen-2-yl)acrylate] the remaining activity at 500 µM (stock) (E. coli LpxA) was 57.8% and the remaining activity at 5000 µM (stock) (E. coli LpxA) was 4%.

Work on `Cn1nnnc1-c1cc(-c2ccc(F)cc2)sc1/C=C/C(=O)O` [DNM0233, (E)-3-(5-(4-fluorophenyl)-3-(1-methyl-1H-tetrazol-5-yl)thiophen-2-yl)acrylic acid] yielded a remaining activity at 500 µM (stock) (E. coli LpxA) of 98.8% and a remaining activity at 5000 µM (stock) (E. coli LpxA) of 47.3%.

For `O=C(O)/C=C/c1cc(-c2nnn[nH]2)c(-c2ccc(-c3ccccc3)cc2)s1` [DNM0225, (E)-3-(5-(4-biphenylyl)-4-(1H-tetrazol-5-yl)thiophen-2-yl)acrylic acid], the remaining activity at 500 µM (stock) (E. coli LpxA) was 84.9% and the remaining activity at 5000 µM (stock) (E. coli LpxA) was 7.3%.

`O=C(O)C(=Cc1cc(-c2nnn[nH]2)c(Cc2ccccc2)s1)C(=O)O` [DNM0264, 2-((5-benzyl-4-(1H-tetrazol-5-yl)thiophen-2-yl)methylene)malonic acid] gave a remaining activity at 500 µM (stock) (E. coli LpxA) of 56.8% and a remaining activity at 5000 µM (stock) (E. coli LpxA) of 5.4%.

In the case of `COC(=O)/C=C/c1cc(-c2nnnn2C)c(Cc2ccccc2)s1` [DNM0227, (E)-methyl 3-(5-benzyl-4-(1-methyl-1H-tetrazol-5-yl)thiophen-2-yl)acrylate], the remaining activity at 500 µM (stock) (E. coli LpxA) is reported as 92.1% and the remaining activity at 5000 µM (stock) (E. coli LpxA) is reported as 86.6%.

For `O=C(O)/C=C/c1cc(-c2nnn[nH]2)c(-c2ccc(F)cc2)s1` [DNM0224, (E)-3-(5-(4-fluorophenyl)-4-(1H-tetrazol-5-yl)thiophen-2-yl)acrylic acid], the remaining activity at 500 µM (stock) (E. coli LpxA) was 88.7% and the remaining activity at 5000 µM (stock) (E. coli LpxA) was 37.9%.

`COC(=O)/C=C/c1cc(-c2nnn[nH]2)c(Cc2ccccc2)s1` [DNM0194, (Z) and (E)-methyl 3-(5-benzyl-4-(1H-tetrazol-5-yl)thiophen-2-yl)acrylate] was tested, and the “% LpxA activity (500 μM)” value (E. coli LpxA) was 36.0%, the “% LpxA activity (5 mM)” value (E. coli LpxA) was 1.4% and the MIC [2] was 1000 to 2000 µM.

`O=C1NC(=O)C(=Cc2sc(Cc3ccccc3)cc2-c2nnn[nH]2)S1` [DNM0246, 5-((5-benzyl-3-(1H-tetrazol-5-yl)thiophen-2-yl)methylene)thiazolidine-2,4-dione] was tested, and the remaining activity at 500 µM (stock) (E. coli LpxA) was 165% and the remaining activity at 5000 µM (stock) (E. coli LpxA) was 10.3%.

`NC[C@H]1O[C@H](O[C@H]2[C@H](O)[C@@H](O[C@H]3O[C@H](CO)[C@@H](O)[C@H](N)[C@H]3O)[C@H](N)C[C@@H]2N)[C@H](O)[C@@H](O)[C@@H]1O` [Kanamycin] was tested, and the MIC [1, 4] was 3.12 µg/mL.

In the case of Gentamicin, the MIC [1] is reported as 0.39 µg/mL.

In the case of `COC(=O)/C=C/c1sc(-c2ccc(-c3ccccc3)cc2)cc1-c1nnn[nH]1` [DNM0240, (E)-methyl 3-(5-(4-biphenyl)-3-(1H-tetrazol-5-yl)thiophen-2-yl)acrylate], the “% LpxA activity (500 μM)” value (E. coli LpxA) is reported as 90.7% and the “% LpxA activity (5 mM)” value (E. coli LpxA) is reported as 6.6%.

`Cn1nnc(-c2cc(/C=C/C(=O)O)sc2Cc2ccccc2)n1` [DNM0197, (E)-3-(5-benzyl-4-(2-methyl-2H-tetrazol-5-yl)thiophen-2-yl)acrylic acid] showed a remaining activity at 500 µM (stock) (E. coli LpxA) of 62.4% and a remaining activity at 5000 µM (stock) (E. coli LpxA) of 20.2%.

`O=C(O)/C=C/c1cc(-c2nnn[nH]2)c(Cc2ccccc2)s1` [DNM0195, (Z) and (E)-3-(5-benzyl-4-(1H-tetrazol-5-yl)thiophen-2-yl)acrylic acid] was tested, and the “% LpxA activity (500 μM)” value (E. coli LpxA) was 7.6%, the “% LpxA activity (5 mM)” value (E. coli LpxA) was 3.1% and the MIC [2] was 1000 µM (≈ 312 µg/mL). For the same compound, the MIC [3] was 1000 to 2000 µM and the Liver biopsies (mice) was “normal”.

Compound `O=C(O)/C=C/c1sc(-c2ccc(-c3ccccc3)cc2)cc1-c1nnn[nH]1` [DNM0245, (E)-3-(5-(biphenyl-4-yl)-3-(1H-tetrazol-5-yl)thiophen-2-yl)acrylic acid] has a remaining activity at 500 µM (stock) (E. coli LpxA) of 78.5% and a remaining activity at 5000 µM (stock) (E. coli LpxA) of 4.4%.

`COC(=O)/C=C/c1cc(-c2nnn(C)n2)c(Cc2ccccc2)s1` [DNM0226, (E)-methyl 3-(5-benzyl-4-(2-methyl-2H-tetrazol-5-yl)thiophen-2-yl)acrylate] showed a remaining activity at 500 µM (stock) (E. coli LpxA) of 97% and a remaining activity at 5000 µM (stock) (E. coli LpxA) of 93%.

In the case of `O=C(O)/C=C/c1cc(-c2nnn[nH]2)c(-c2cccc3ccccc23)s1` [DNM0235, (E)-3-(5-(naphthalen-1-yl)-4-(1H-tetrazol-5-yl)thiophen-2-yl)acrylic acid], the remaining activity at 500 µM (stock) (E. coli LpxA) is reported as 59.6% and the remaining activity at 5000 µM (stock) (E. coli LpxA) is reported as 7.3%.

Compound `COC(=O)/C=C/c1sc(Cc2ccccc2)cc1-c1nnn[nH]1` [DNM0243, (E)-methyl 3-(5-benzyl-3-(1H-tetrazol-5-yl)thiophen-2-yl)acrylate] has a remaining activity at 500 µM (stock) (E. coli LpxA) of 69.2% and a remaining activity at 5000 µM (stock) (E. coli LpxA) of 0.9%.

Compound `O=C(O)/C=C/c1cccc(Cc2sc(/C=C/C(=O)O)cc2-c2nnn[nH]2)c1` [DNM0270, (E)-3-(3-((5-((E)-2-carboxyvinyl)-3-(1H-tetrazol-5-yl)thiophen-2-yl)methyl)phenyl)acrylic acid] has a remaining activity at 500 µM (stock) (E. coli LpxA) of 89.7% and a remaining activity at 5000 µM (stock) (E. coli LpxA) of 3%.

— patent US20100137388A1, “Therapeutic Pro-Antibiotic Agents and Methods of Use Thereof” (priority 2007, published 2010)
